biological target: hPin1 (Protein interacting with NIMA (-kinase)) (Homo sapiens, UniProt Q13526); experiment: protease-coupled PPIase assay, hPin1; type: biochemical; details: hPin1 6 nM; substrate Ac-Ala-Ala-Ser(PO3H2)-Pro-Arg-pNA, trypsin; 35 mM HEPES pH 7.8, 6° C.; read-out: Specificity of the inhibition with rotamases, Target T-1 (IC50 class)
Sequence (Q13526 whole entry): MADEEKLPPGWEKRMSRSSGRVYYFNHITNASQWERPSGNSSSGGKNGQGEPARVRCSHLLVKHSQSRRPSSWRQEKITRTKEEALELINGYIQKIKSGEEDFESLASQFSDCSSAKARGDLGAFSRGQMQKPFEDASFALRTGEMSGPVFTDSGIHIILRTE

IC50 | SMILES
1000 to 10000 nM | NC(=O)[C@H](Cc1ccc2ccccc2c1)NC(=O)[C@@H]1CCCCN1C(=O)[C@H](CSCP(=O)(O)O)NC(=O)OCCc1ccccc1 [Compound 47, {3-{2-(1-Carbamoyl-2-naphthalen-2-yl-ethylcarbamoyl)-piperidin-1-yl]-3-oxo-2-phenethyloxycarbonyl-aminopropylsulfanylmethyl}-phosphonic acid]
< 1000 nM | NC(=O)[C@H](Cc1ccc2ccccc2c1)NC(=O)[C@@H]1CCCCN1C(=O)[C@H](CSCP(=O)(O)O)NS(=O)(=O)c1ccccc1 [Compound 48, {2-Benzenesulfonylamino-3-[2-(1-carbamoyl-2-naphthalen-2-yl-ethylcarbamoyl)-piperidin-1-yl]-3-oxo-propylsulfanylmethyl}-phosphonic acid]
< 1000 nM | NC(=O)[C@H](Cc1ccc2ccccc2c1)NC(=O)[C@@H]1CCCCN1C(=O)[C@H](CSCP(=O)(O)O)NS(=O)(=O)CCc1ccccc1 [Compound 49, [3-[2-(1-Carbamoyl-2-naphthalen-2-yl-ethylcarbamoyl)-piperidin-1-yl]-3-oxo-2-(2-phenyl-ethanesulfonylamino)-propylsulfanylmethyl]-phosphonicacid]
< 1000 nM | NC(=O)[C@H](Cc1ccc2ccccc2c1)NC(=O)[C@@H]1CCCCN1C(=O)[C@H](CSCP(=O)(O)O)NS(=O)(=O)CCCc1ccccc1 [Compound 50, [3-[2-(1-Carbamoyl-2-naphthalen-2-yl-ethylcarbamoyl)-piperidin-1-yl]-3-oxo-2-(3-phenyl-propane-1-sulfonylamino)-propylsulfanylmethyl]-phosphonicacid]
1000 to 10000 nM | CS(=O)(=O)N[C@@H](CSCP(=O)(O)O)C(=O)N1CCCC[C@H]1C(=O)N[C@@H](Cc1ccc2ccccc2c1)C(N)=O [Compound 51, {3-[2-(1-Carbamoyl-2-naphthalen-2-yl-ethylcarbamoyl)-piperidin-1-yl]-2-methanesulfonylamino-3-oxo-propylsulfanylmethyl}-phosphonic acid]
1000 to 10000 nM | Cc1cc(C)c(S(=O)(=O)N[C@@H](CSCP(=O)(O)O)C(=O)N2CCCC[C@H]2C(=O)N[C@@H](Cc2ccc3ccccc3c2)C(N)=O)c(C)c1 [Compound 52, [3-[2-(1-Carbamoyl-2-naphthalen-2-yl-ethylcarbamoyl)-piperidin-1-yl]-3-oxo-2-(2.4.6-trimethyl-benzenesulfonylamino)-propylsulfanylmethyl]-phosphonicacid]
< 1000 nM | NC(=O)[C@H](Cc1ccc2ccccc2c1)NC(=O)[C@@H]1CCCCN1C(=O)[C@H](CSCP(=O)(O)O)NS(=O)(=O)c1cccs1 [Compound 53, [3-[2-(1-Carbamoyl-2-naphthalen-2-yl-ethylcarbamoyl)-piperidin-1-yl]-3-oxo-2-(thiophene-2-sulfonylamino)propylsulfanyl-methyl]-phosphonic acid]
1000 to 10000 nM | NC(=O)[C@H](Cc1ccc2ccccc2c1)NC(=O)[C@@H]1CCCCN1C(=O)[C@H](CSCP(=O)(O)O)NC(=O)CCN1CCCCC1 [Compound 54, [3-[2-(1-Carbamoyl-2-naphthalen-2-yl-ethylcarbamoyl)-piperidin-1-yl]-3-oxo-2-(3-piperidin-1-yl-propionylamino)-propylsulfanylmethyl]-phosphonicacid]
< 1000 nM | NC(=O)[C@H](Cc1ccc2ccccc2c1)NC(=O)[C@@H]1CCCCN1CCSCP(=O)(O)O [Compound 55, {2-[2-(1-Carbamoyl-2-naphthalen-2-yl-ethylcarbamoyl)-piperidin-1-yl]-ethylsulfanylmethyl}-phosphonic acid]
< 1000 nM | NC(=O)[C@H](Cc1ccc2ccccc2c1)NC(=O)[C@@H]1CCCCN1C(=O)[C@H](CSCP(=O)(O)O)NC(=O)Cc1ccc2c(c1)OCO2 [Compound 56, {2-(2-Benzo[1.3]dioxol-5-yl-acetylamino)-3-[2-(1-carbamoyl-2-naphthalen-2-yl-ethylcarbamoyl)-piperidin-1-yl]-3-oxo-propylsulfanylmethyl}-phosphonic acid]
< 1000 nM | COc1cc(CC(=O)N[C@@H](CSCP(=O)(O)O)C(=O)N2CCCC[C@H]2C(=O)N[C@@H](Cc2ccc3ccccc3c2)C(N)=O)cc(OC)c1 [Compound 57, {3-[2-(1-Carbamoyl-2-naphthalen-2-yl-ethylcarbamoyl)-piperidin-1-yl]-2-[2-(3.5-dimethoxy-phenyl)-acetylamino]-3-oxo-propylsulfanylmethyl}-phosphonicacid]
< 1000 nM | COc1ccccc1CC(=O)N[C@@H](CSCP(=O)(O)O)C(=O)N1CCCC[C@H]1C(=O)N[C@@H](Cc1ccc2ccccc2c1)C(N)=O [Compound 58, {3-[2-(1-Carbamoyl-2-naphthalen-2-yl-ethylcarbamoyl)-piperidin-1-yl]-2-[2-(2-methoxy-phenyl)-acetylamino]-3-oxo-propylsulfanylmethyl}-phosphonicacid]
1000 to 10000 nM | O=C(NCCc1ccc2ccccc2c1)[C@@H]1CCCCN1C(=O)CSCP(=O)(O)O [Compound 59, {2-[2-(2-Naphthalen-2-yl-ethylcarbamoyl)-piperidin-1-yl]-2-oxo-ethylsulfanylmethyl}-phosphonic acid]
1000 to 10000 nM | O=C(Nc1ccccc1)[C@@H]1CCCCN1C(=O)CSCP(=O)(O)O [Compound 60, [2-Oxo-2-(2-phenylcarbamoyl-piperidin-1-yl)-ethylsulfanylmethyl]-phosphonicacid]
< 1000 nM | COc1cccc(CC(=O)N[C@@H](CSCP(=O)(O)O)C(=O)N2CCCC[C@H]2C(=O)N[C@@H](Cc2ccc3ccccc3c2)C(N)=O)c1 [Compound 61, {3-[2-(1-Carbamoyl-2-naphthalen-2-yl-ethylcarbamoyl)-piperidin-1-yl]-2-[2-(3-methoxy-phenyl)-acetylamino]-3-oxo-propylsulfanylmethyl}-phosphonicacid]
< 1000 nM | NC(=O)[C@H](Cc1ccc2ccccc2c1)NC(=O)[C@@H]1CCCCN1C(=O)[C@H](CSCP(=O)(O)O)NC(=O)Cc1ccc(N2CCNCC2)cc1 [Compound 62, {3-[2-(1-Carbamoyl-2-naphthalen-2-yl-ethylcarbamoyl)-piperidin-1-yl]-3-oxo-2-[2-(4-piperazin-1-yl-phenyl)-acetylamino]-propylsulfanylmethyl}-phosphonicacid]
< 1000 nM | CC(C)(C)NC(=O)[C@H](Cc1ccc2ccccc2c1)NC(=O)[C@@H]1CCCCN1C(=O)CSCP(=O)(O)O [Compound 63, {2-[2-(1-tert-Butylcarbamoyl-2-naphthalen-2-yl-ethylcarbamoyl)-piperidin-1-yl]-2-oxo-ethylsulfanylmethyl}-phosphonicacid]
< 1000 nM | CNC(=O)[C@H](Cc1ccc2ccccc2c1)NC(=O)[C@@H]1CCCCN1C(=O)CSCP(=O)(O)O [Compound 64, {2-[2-(1-Methylcarbamoyl-2-naphthalen-2-yl-ethylcarbamoyl)-piperidin-1-yl]-2-oxo-ethylsulfanylmethyl}-phosphonicacid]
1000 to 10000 nM | O=C(NCc1ccccc1)[C@@H]1CCCCN1C(=O)CSCP(=O)(O)O [Compound 66, [2-(2-Benzylcarbamoyl-piperidin-1-yl)-2-oxo-ethylsulfanylmethyl]-phosphonic acid]
1000 to 10000 nM | O=C(NCCc1ccccc1)[C@@H]1CCCCN1C(=O)CSCP(=O)(O)O [Compound 67, [2-Oxo-2-(2-phenethylcarbamoyl-piperidin-1-yl)-ethylsulfanylmethyl]-phosphonicacid]
1000 to 10000 nM | O=C(NCCCc1ccccc1)[C@@H]1CCCCN1C(=O)CSCP(=O)(O)O [Compound 68, {2-Oxo-2-[2-(3-phenyl-propylcarbamoyl)-piperidin-1-yl]-ethylsulfanylmethyl}-phosphonicacid]
< 1000 nM | CC(C)(C)NC(=O)[C@H](Cc1ccc2ccccc2c1)NC(=O)[C@@H]1CCCCN1CCSCP(=O)(O)O [Compound 71, {2-[2-(1-tert-Butylcarbamoyl-2-naphthalen-2-yl-ethylcarbamoyl)-piperidin-1-yl]-ethylsulfanylmethyl}-phosphonicacid]
< 1000 nM | O=C(NC(Cc1ccc2ccccc2c1)c1ccccc1)[C@@H]1CCCCN1C(=O)CSCP(=O)(O)O (stereo partly drawn) [Compound 73, {2-[2-(2-Naphthalen-2-yl-1-phenyl-ethylcarbamoyl)-piperidin-1-yl]-2-oxo-ethylsulfanylmethyl}-phosphonic acid]
1000 to 10000 nM | Cc1csc(C(Cc2ccc3ccccc3c2)NC(=O)[C@@H]2CCCCN2C(=O)CSCP(=O)(O)O)n1 (stereo partly drawn) [Compound 74, (2-{2-[1-(4-Methyl-thiazol-2-yl)-2-naphthalen-2-yl-ethylcarbamoyl]-piperidin-1-yl}-2-oxo-ethylsulfanylmethyl)-phosphonic acid]
< 1000 nM | O=C(NC(Cc1ccc2ccccc2c1)c1nnco1)[C@@H]1CCCCN1C(=O)CSCP(=O)(O)O (stereo partly drawn) [Compound 75, {2-[2-(2-Naphthalen-2-yl-1-[1,3,4]oxadiazol-2-yl-ethylcarbamoyl)-piperidin-1-yl]-2-oxo-ethylsulfanylmethyl}-phosphonic acid]
< 1000 nM | O=C(NC(Cc1ccc2ccccc2c1)c1nnc[nH]1)[C@@H]1CCCCN1C(=O)CSCP(=O)(O)O (stereo partly drawn) [Compound 76, (2-{2-[2-Naphthalen-2-yl-1-(4H-[1,2,4]triazol-3-yl)-ethylcarbamoyl]-piperidin-1-yl}-2-oxo-ethylsulfanylmethyl)-phosphonic acid]
< 1000 nM | O=C(NC(Cc1ccc2ccccc2c1)c1ccccn1)[C@@H]1CCCCN1C(=O)CSCP(=O)(O)O (stereo partly drawn) [Compound 77, {2-[2-(2-Naphthalen-2-yl-1-pyridin-2-yl-ethylcarbamoyl)-piperidin-1-yl]-2-oxo-ethylsulfanylmethyl}-phosphonicacid]

— patent publication US20080194524A1, “Compounds For the Inhibition of Undesired Cell Proliferation and Use Thereof” (JERINI AG, priority 2003, published 2008)
